According to ChEMBL document CHEMBL5500393, “Discovery and Optimization of Novel SaFabI Inhibitors as Specific Therapeutic Agents for MRSA Infection” (J Med Chem, 2024):
Values after ≈ are worked out from the molar mass of the structure shown. Active and inactive are the calls of the source. The calls are words filed in the database; no cut-off is given here.

Tests used:
[1] = molecular target: T1, Enoyl-[acyl-carrier-protein] reductase [NADPH] FabI (Staphylococcus aureus, UniProt Q6GI75); test: Inhibition of N-terminal his 6 tagged Staphylococcus aureus Fabi (1 to […] residues) expressed in Escherichia coli BL21 incubated for 30 mins in presence of NADPH by fluorescence based microplate reader analysis
T1 sequence (Q6GI75 whole entry): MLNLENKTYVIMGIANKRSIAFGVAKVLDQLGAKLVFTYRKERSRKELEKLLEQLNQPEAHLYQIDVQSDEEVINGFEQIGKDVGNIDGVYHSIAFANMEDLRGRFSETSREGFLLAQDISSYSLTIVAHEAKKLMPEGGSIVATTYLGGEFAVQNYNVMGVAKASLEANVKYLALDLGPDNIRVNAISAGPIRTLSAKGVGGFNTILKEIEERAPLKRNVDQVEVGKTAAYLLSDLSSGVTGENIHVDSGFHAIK

Staphylococcus aureus [2] = test: Antimicrobial activity against […] Staphylococcus aureus ATCC33591 measured after 24 hrs by CLSI protocol based microdilution method; format: functional
Staphylococcus aureus [3] = test: Antimicrobial activity against […] Staphylococcus aureus ATCC43300 measured after 24 hrs by CLSI protocol based microdilution method; format: functional
Staphylococcus aureus [4] = test: Antimicrobial activity against […] Staphylococcus aureus USA300 measured after 24 hrs by CLSI protocol based microdilution method; format: functional
Staphylococcus aureus [5] = test: Antimicrobial activity against […] Staphylococcus aureus NRS271 measured after 24 hrs by CLSI protocol based microdilution method; format: functional
Staphylococcus aureus [6] = test: Antimicrobial activity against methicillin-susceptible Staphylococcus aureus ATCC29213 measured after 24 hrs by CLSI protocol based microdilution method; format: functional
Staphylococcus aureus [7] = test: Antimicrobial activity against methicillin-susceptible Staphylococcus aureus ATCC25923 measured after 24 hrs by CLSI protocol based microdilution method; format: functional
Enterococcus faecium = test: Antimicrobial activity against Enterococcus faecium ATCC19434 measured after 24 hrs by CLSI protocol based microdilution method; format: functional
Enterococcus faecalis = test: Antimicrobial activity against Enterococcus faecalis ATCC29212 measured after 24 hrs by CLSI protocol based microdilution method; format: functional
Pseudomonas aeruginosa = test: Antimicrobial activity against Pseudomonas aeruginosa PAO1 measured after 24 hrs by CLSI protocol based microdilution method; format: functional
Escherichia coli = test: Antimicrobial activity against Escherichia coli ATCC25922 measured after 24 hrs by CLSI protocol based microdilution method; format: functional
Acinetobacter baumannii = test: Antimicrobial activity against Acinetobacter baumannii ATCC19606 measured after 24 hrs by CLSI protocol based microdilution method; format: functional
Candida albicans = test: Antimicrobial activity against Candida albicans SC5314 measured after 48 hrs by CLSI protocol based microdilution method; format: functional
Staphylococcus aureus [8] = test: Bactericidal activity against […] Staphylococcus aureus ATCC33591 assessed as log reduction in bacterial count measured within 24 hrs by time-kill assay; format: functional
Staphylococcus aureus [9] = test: Antimicrobial activity against […] Staphylococcus aureus ATCC33591 assessed as reduction in lipid content measured after 4 hrs by microplate reader based analysis; format: functional
Staphylococcus aureus [10] = test: Antimicrobial activity against wild type Staphylococcus aureus RN4220 measured after 24 hrs by CLSI protocol based microdilution method; format: functional
Staphylococcus aureus [11] = test: Antimicrobial activity against Staphylococcus aureus RN4220 harbouring pCM-sfgfp measured after 24 hrs by CLSI protocol based microdilution method; format: functional
Staphylococcus aureus [12] = test: Antimicrobial activity against Staphylococcus aureus RN4220 harbouring pCM-sfgfp::fabi (promoter fabi) measured after 24 hrs by CLSI protocol based microdilution method; format: functional
Staphylococcus aureus [13] = test: Antimicrobial activity against Staphylococcus aureus RN4220 harbouring pCM-sfgfp::fabi (promoter-sarA) measured after 24 hrs by CLSI protocol based microdilution method; format: functional
[14] = Metabolic stability in human liver microsomes assessed as half life at 1 uM measured upto 120 mins in presence of NADPH by LC-MS analysis; format: ADME, Microsome
[15] = Metabolic stability in human liver microsomes assessed as intrinsic clearance at 1 uM measured upto 120 mins in presence of NADPH by LC-MS analysis; format: ADME, Microsome; conditions: read-out: CLH
[16] = Metabolic stability in mouse liver microsomes assessed as half life at 1 uM measured upto 120 mins in presence of NADPH by LC-MS analysis; format: ADME, Microsome
[17] = Metabolic stability in mouse liver microsomes assessed as intrinsic clearance at 1 uM measured upto 120 mins in presence of NADPH by LC-MS analysis; format: ADME, Microsome; conditions: read-out: CLH
[18] = Cmax in female Sprague-Dawley rat at 5 mg/kg, iv measured upto 24 hrs by LC-MS analysis; format: ADME, organism-based; conditions: in vivo
[19] = Half life in female Sprague-Dawley rat at 5 mg/kg, iv measured upto 24 hrs by LC-MS analysis; format: ADME, organism-based; conditions: in vivo
[20] = Clearance in female Sprague-Dawley rat at 5 mg/kg, iv measured upto 24 hrs by LC-MS analysis; format: ADME, organism-based; conditions: in vivo
[21] = AUC (0 to t) in female Sprague-Dawley rat at 5 mg/kg, iv measured upto 24 hrs by LC-MS analysis; format: ADME, organism-based; conditions: in vivo
[22] = Cmax in female Sprague-Dawley rat at 20 mg/kg, po measured upto 24 hrs by LC-MS analysis; format: ADME, organism-based; conditions: in vivo
[23] = Tmax in female Sprague-Dawley rat at 20 mg/kg, po measured upto 24 hrs by LC-MS analysis; format: ADME, organism-based; conditions: in vivo
[24] = Half life in female Sprague-Dawley rat at 20 mg/kg, po measured upto 24 hrs by LC-MS analysis; format: ADME, organism-based; conditions: in vivo
[25] = Clearance in female Sprague-Dawley rat at 20 mg/kg, po measured upto 24 hrs by LC-MS analysis; format: ADME, organism-based; conditions: in vivo
[26] = AUC (0 to t) in female Sprague-Dawley rat at 20 mg/kg, po measured upto 24 hrs by LC-MS analysis; format: ADME, organism-based; conditions: in vivo
[27] = Oral bioavailability in female Sprague-Dawley rat at 20 mg/kg measured upto 24 hrs by LC-MS analysis; format: ADME, organism-based; conditions: in vivo
Staphylococcus aureus [28] = test: In vivo antibacterial activity against methicilin-resistant Staphylococcus aureus ATCC33591 infected in BALB/c mouse skin infection model assessed as decrease in lesion size at 5 mg/kg administered daily for 4 days (reference value: 43.4 mm2); format: functional; conditions: time 4 day
Staphylococcus aureus [29] = test: In vivo antibacterial activity against methicilin-resistant Staphylococcus aureus ATCC33591 infected in BALB/c mouse skin infection model assessed as reduction in bacterial load at 5 mg/kg administered daily for 4 days; format: functional; conditions: time 4 day
Staphylococcus aureus [30] = test: In vivo antibacterial activity against methicilin-resistant Staphylococcus aureus ATCC33591 infected in BALB/c mouse skin infection model assessed as reduction in area of injury at 5 mg/kg administered daily for 4 days by H and E staining based analysis; format: functional, organism-based; conditions: time 4.0 day
Staphylococcus aureus [31] = test: In vivo antibacterial activity against methicilin-resistant Staphylococcus aureus ATCC33591 infected in BALB/c mouse skin infection model assessed as reduction in number of inflammatory cells at 5 mg/kg administered daily for 4 days by H and E staining based analysis; format: functional, organism-based; conditions: time 4.0 day
Staphylococcus aureus [32] = test: In vivo antibacterial activity against methicilin-resistant Staphylococcus aureus ATCC33591 infected in BALB/c mouse skin infection model assessed as restoration of cell morphology at 5 mg/kg administered daily for 4 days by H and E staining based analysis; format: functional, organism-based; conditions: time 4.0 day
Staphylococcus aureus [33] = test: In vivo antibacterial activity against methicilin-resistant Staphylococcus aureus ATCC33591 infected in BALB/c mouse skin infection model assessed as reduction in skin lesions at 5 mg/kg administered daily for 4 days (reference value: 50.1 mm2); format: functional; conditions: time 4 day
Staphylococcus aureus [34] = test: In vivo antibacterial activity against methicilin-resistant Staphylococcus aureus ATCC33591 infected in BALB/c mouse skin infection model assessed as log reduction in bacterial count at 5 mg/kg administered daily for 4 days; format: functional; conditions: time 4 day
Staphylococcus aureus [35] = test: In vivo antibacterial activity against methicilin-resistant Staphylococcus aureus ATCC33591 infected in BALB/c mouse skin infection model assessed as normal morphology at 5 mg/kg administered daily for 4 days by H and E staining based analysis; format: functional, organism-based; conditions: time 4.0 day
Staphylococcus aureus [36] = test: In vivo antibacterial activity against methicilin-resistant Staphylococcus aureus ATCC33591 infected in BALB/c mouse skin infection model assessed as normal skin structure at 5 mg/kg administered daily for 4 days by H and E staining based analysis; format: functional, organism-based; conditions: time 4.0 day
Staphylococcus aureus [37] = test: Antimicrobial activity against […] Staphylococcus aureus ATCC33591 assessed as frequency of spontaneous resistance at 4 times MIC measured after 48 hrs by; format: functional
Staphylococcus aureus [38] = test: Antimicrobial activity against […] Staphylococcus aureus ATCC33591 assessed as frequency of spontaneous resistance at 8 times MIC measured after 48 hrs by; format: functional
Staphylococcus aureus [39] = test: Antimicrobial activity against […] Staphylococcus aureus ATCC33591 assessed as frequency of spontaneous resistance at 16 times MIC measured after 48 hrs by; format: functional

Cc1c(CN(C)C(=O)/C=C/c2cnc3c(c2)CCC(=O)N3)oc2ccccc12 [AFN-1252]
IC50 [1]: 42.3 nM | MIC (Staphylococcus aureus [2]): 0.008 µg/mL (≈ 0.0213 µM) | MIC (Staphylococcus aureus [3]): 0.016 µg/mL (≈ 0.0426 µM) | MIC (Staphylococcus aureus [4]): 0.016 µg/mL (≈ 0.0426 µM) | MIC (Staphylococcus aureus [5]): 0.016 µg/mL (≈ 0.0426 µM) | MIC (Staphylococcus aureus [6]): 0.008 µg/mL (≈ 0.0213 µM) | MIC (Staphylococcus aureus [7]): 0.008 µg/mL (≈ 0.0213 µM) | MIC (Enterococcus faecium): > 32 µg/mL | MIC (Enterococcus faecalis): > 32 µg/mL | MIC (Pseudomonas aeruginosa): > 32 µg/mL | MIC (Escherichia coli): > 32 µg/mL | MIC (Acinetobacter baumannii): > 32 µg/mL | MIC (Candida albicans): > 32 µg/mL | log(activity) (Staphylococcus aureus [8]): 5 | MIC (Staphylococcus aureus [9]): 0.008 µg/mL (≈ 0.0213 µM) | MIC (Staphylococcus aureus [10]): 0.016 µg/mL (≈ 0.0426 µM) | MIC (Staphylococcus aureus [11]): 0.016 µg/mL (≈ 0.0426 µM) | MIC (Staphylococcus aureus [12]): 0.25 µg/mL (≈ 0.666 µM) | MIC (Staphylococcus aureus [13]): 1 µg/mL (≈ 2.66 µM) | half-life at 1 µM [14]: 34.5 min | CLint scaled at 1 µM [15]: 50.4 mL/min/kg | half-life at 1 µM [16]: 17.1 min | CLint scaled at 1 µM [17]: 319 mL/min/kg | Cmax [18]: 1810 ng/mL | t1/2 [19]: 402 min | clearance [20]: 30 mL/min/kg | AUCt [21]: 2713.1 ng·h/mL | Cmax [22]: 711 ng/mL | Tmax [23]: 60 min | t1/2 [24]: 432 min | CL/F [25]: 71.7 mL/min/kg | AUCt [26]: 4414.1 ng·h/mL | bioavailability [27]: 40.7% | Activity (Staphylococcus aureus [28]): 10.4 mm2 | log(activity) (Staphylococcus aureus [29]): -7.1 | Activity (Staphylococcus aureus [30]): Active | Activity (Staphylococcus aureus [31]): Active | Activity (Staphylococcus aureus [32]): Active | Activity (Staphylococcus aureus [33]): 13.7 mm2 | log(activity) (Staphylococcus aureus [34]): 7.8 | Activity (Staphylococcus aureus [35]): Active | Activity (Staphylococcus aureus [36]): Active | Activity (Staphylococcus aureus [37]): 1.6 10^-9No_unit | Activity (Staphylococcus aureus [38]): 5.9 10^-10No_unit | Activity (Staphylococcus aureus [39]): <2.6 10^-10No_unit
